Test results from paper PMC7297445, “Pharmacokinetic/Pharmacodynamic Determination and Preclinical Pharmacokinetics of the β-Lactamase Inhibitor ETX1317 and Its Orally Available Prodrug ETX0282” (ACS Infectious Diseases, 2020).
Entries after “also recorded” stand apart in the source; their conditions may differ.

Key:
E. coli NMC101 = experiment: Murine neutropenic thigh infection model; type: in vivo, mouse
Description: (§1) To further understand whether this in vitro activity translated to in vivo efficacy, an additional neutropenic thigh study was conducted in mice with increasing doses of ETX0282 alone vs E. coli NMC101 (ETX1317 MICBLI = 1 μg/mL) and ARC4419 (ETX1317 MICBLI = 0.25 μg/mL). […] Despite the significant exposure of ETX1317, a 200 mg/kg q6h dose of ETX0282 alone was ineffective for both strains (Table 6).
(§2) In vivo neutropenic infection models in the mouse were conducted as previously described.[48],[49] All procedures were performed to Entasis approved IACUC policies and guidelines as well as OLAW standards. Briefly, Female CD-1 mice (20–22 g, Charles River Laboratories) were acclimated for 5 days prior to start of study. Animals were housed 3 per cage with free access to food and water. Mice were rendered neutropenic via two doses of cyclophosphamide on days −4 and −1 with 150 mg/kg and 100 mg/kg delivered intraperitoneally in a dose volume of 10 mL/kg, respectively.[48]
(§3) Enterobacteriaceae isolates ARC2687, ARC4488, ARC5118, NMC101, and ARC4419 were prepared for infection from an overnight plate culture. A portion of the plate was resuspended in sterile saline and adjusted to an OD of 0.1 at 625 nm. The adjusted bacterial suspension was further diluted to target an infecting inoculum of approximately 5.0 × 10^6–1.0 × 10^7 CFU/mouse. The actual inoculum size varied between 5.5 × 10^6–1.6 × 10^6 CFU/thigh and administered via intramuscular injection of (100 μL). Plate counts of the inoculum were performed to confirm inoculum concentration and treatment was initiated 2 h after bacterial challenge.
(§4) ETX0282 and CPDP were formulated in 0.5% HPMC/0.1% Tween 80 suspension. meropenem (utilized as a positive control) was solubilized in water for injection. All studies utilized a meropenem dosed at 600 mg/kg q6h subcutaneously as positive control against meropenem sensitive isolates (MIC ≤ 2 μg/mL) and as a negative control against meropenem resistant isolates. For dose arms utilizing a combination of ETX0282 and CPDP, both agents were reconstituted in the same vehicle. All dose concentrations were adjusted to deliver targeted mg/kg doses within a dose volume of 10 mL/kg. Formulation potency was verified by LC/MS/MS.
(§5) ETX0282 and CPDP were administered via q6h dose intervals in order to achieve targeted unbound exposures. At 24 h post initiation of therapy, animals were euthanized, tissue samples aseptically collected and homogenized. Bacterial colony enumeration of tissue homogenate was performed by serial dilution on TSA plates which were incubated overnight at 35 °C prior to colony (CFU) counting.

E. coli ARC4419 = experiment: Murine neutropenic thigh infection model; type: in vivo, mouse
Description: as §1, §2, §3, §4, §5

[1] = Human PK prediction (allometric scaling); conditions: based upon non-clinical PK data
From the text: The methodology utilized for prediction of human PK of ETX1317 was consistent with methods used in support of similar chemotypes such as avibactam and ETX2514.[43] Human predictions for volume of distribution (Vd,ss) and clearance (CL) were within 2-fold of observed mean data obtained in Phase 1 studies, with renal clearance as the predominant clearance mechanism.[44],[45] Pharmacokinetic and excretion data from rats, dogs, and monkeys were used collectively for the projection of ETX1317 PK. Liver S9 incubations were also performed across all species (including human) to confirm consistent conversion of ETX0282 to ETX1317 at projected dose levels of ETX0282.[42] Human PK prediction of ETX1317 was completed using single species allometry for volume of distribution from dog PK and dog and monkey single species scaling using liver blood flow to predict non-renal clearance (CLNR).[46] […] While urinary excretion of ETX1317 was lower in dogs relative to monkeys and rats, human renal clearance (CLR) was predicted using dog-human renal correlation,[47] as this method has been highly predictive for compounds that are generally eliminated via renal excretion. The elimination half-life was estimated based upon the combined use of predicted parameters for clearance and volume of distribution, where T1/2 = ln 2*Vd,ss/CLtotal. Allometric scaling predicted human Vd,ss of 0.35 L/kg.
(§6) Based upon the non-clinical PK data, a range of 60–80% bioavailability and a moderate absorption rate of 0.5–1.0 h^–1 have been considered for humans. In consideration of these predicted parameters, mean percent fT > CT of 1 μg/mL (2× MIC of 0.5 μg/mL) estimates for a 500 mg ETX1317 equiv q12h dose of ETX0282 are summarized in Table S3.

[2] = set-up: method as in PMID 32658473; conditions: across all species, including humans; cited from earlier work
E. coli ARC2687 = experiment: Murine neutropenic thigh infection model; type: in vivo, mouse
Description: as §2, §3, §4, §5

K. pneumoniae ARC5118 = experiment: Murine neutropenic thigh infection model; type: in vivo, mouse; conditions: 50 mg/kg p.o./q6h
Description: as §2, §3, §4, §5

[3] = Mouse oral pharmacokinetics (satellite infected animals); type: in vivo; conditions: after oral administration in mice
[4] = Low-dose oral PK of ETX0282 across rats, dogs and monkeys; type: in vivo; conditions: oral 1 to 10 mg/kg
Description: Intravenous and oral pharmacokinetics of ETX1317 and ETX0282 in preclinical species are summarized in Table 7 and Table S1, respectively. Time vs concentration profiles are depicted graphically in Figure S1.
as §6
Intravenous pharmacokinetics of ETX1317 investigated in jugular vein cannulated male Sprague–Dawley rats (Charles River Laboratories, n = 3/route) at a dose of 10 mg/kg formulated in 0.9% saline. Oral pharmacokinetics of ETX0282 was evaluated at a 10 mg/kg equivalent dose of ETX1317 formulated in 25:75 PEG 400:WFI. The pH of each formulation was verified to fall within a range of 4–7 and were confirmed to be in solution prior to dosing. Potency was verified by LC/MS/MS. Dose volumes were 5 and 10 mL/kg for ETX1317(i.v.) and ETX0282(p.o.), respectively for rats. In both dog (male, 3/route) and monkey (male, 3/route) studies, i.v. and p.o. doses were formulated on 25:75 PEG 400:WFI (pH ∼5) and administered at a dose of ∼1 mg/kg. Dose volume was 1 mL/kg for both routes in dogs and monkeys with the i.v. dose infused over 15 min. […]

[5] = set-up: method as in PMID 9950279; conditions: oral; PEPT1 substrate; cited from earlier work
[6] = system: E. coli strain (ATCC 25922); experiment: Murine neutropenic thigh model, CPDP dose range study; type: in vivo, mouse; conditions: 50 mg/kg oral q6h, administered alone
From the text: All in vivo efficacy studies were supported with PK of ETX1317 and CPD following oral administration of ETX0282 and CPDP. For the purposes of understanding the exposure-PD response relationship, total systemic concentrations of ETX1317 and cefpodoxime were normalized to unbound drug levels after accounting for protein binding with percent unbound estimates of 93% and 66%, respectively, in mouse plasma (Table S2). An in vivo dose range study with CPDP administered alone against a susceptible E. coli strain (ATCC 25922, CPD MIC = 0.5 μg/mL) was completed initially in a murine neutropenic thigh model to confirm its PK/PD target. In this study a 50 mg/kg oral dose of CPDP administered q6h was consistent with achieving 1–log kill over 24 h. […] Oral exposure was generally dose proportional to 50 mg/kg; however, it became less than dose proportional at ≥200 mg/kg.
In vivo neutropenic infection models in the mouse were conducted as previously described.[48],[49] All procedures were performed to Entasis approved IACUC policies and guidelines as well as OLAW standards. Briefly, Female CD-1 mice (20–22 g, Charles River Laboratories) were acclimated for 5 days prior to start of study. Animals were housed 3 per cage with free access to food and water. […]

K. pneumoniae ARC4488 = experiment: Murine neutropenic thigh infection model; type: in vivo, mouse; conditions: 50 mg/kg p.o./q6h
Description: as §2, §3, §4, §5

[7] = ETX0282 alone 200 mg/kg q6h, combination 50:50 mg/kg q6h

CC1=C[C@@H](C(N)=O)N2C[C@@H]1N(O[C@H](F)C(=O)OC(C)C)C2=O [ETX0282]
log10 CFU/g thigh change 24 h post therapy initiation (E. coli NMC101; 10 mg/kg p.o./q6h): +2.10 log10 CFU/g | log10 CFU/g thigh change 24 h post therapy initiation (E. coli NMC101; 50 mg/kg p.o./q6h): +1.83 log10 CFU/g | log10 CFU/g thigh change 24 h post therapy initiation (E. coli NMC101; 200 mg/kg p.o./q6h): +1.39 log10 CFU/g | in vivo efficacy in words (E. coli NMC101; [7]): ineffective | log10 CFU/g thigh change 24 h post therapy initiation (E. coli ARC4419; 10 mg/kg p.o./q6h): +1.41 log10 CFU/g | log10 CFU/g thigh change 24 h post therapy initiation (E. coli ARC4419; 50 mg/kg p.o./q6h): +1.06 log10 CFU/g | log10 CFU/g thigh change 24 h post therapy initiation (E. coli ARC4419; 200 mg/kg p.o./q6h): +1.07 log10 CFU/g | in vivo efficacy in words (E. coli ARC4419; [7]): ineffective | absorption rate considered for humans [1]: 0.5–1.0 h^–1 | conversion of ETX0282 to ETX1317 in liver S9 [2]: efficient conversion; also recorded: Extensive and quantitative conversion | log10 CFU/g thigh change 24 h post therapy initiation (E. coli ARC2687; 10 mg/kg p.o./q6h (footnote c)): +2.93 ^c log10 CFU/g | log10 CFU/g thigh change 24 h post therapy initiation (K. pneumoniae ARC5118): +1.31 log10 CFU/g | systemic concentrations of intact prodrug [3]: No concentrations of intact CPDP and ETX0282 were observed systemically | circulating levels of intact prodrug [4]: minimal to no levels of ETX0282

CC1(C)S[C@@H]2[C@H](NC(=O)[C@H](N)c3ccc(O)cc3)C(=O)N2[C@H]1C(=O)O [amoxicillin]
bioavailability [5]: > 70%

COCC1=C(C(=O)OC(C)OC(=O)OC(C)C)N2C(=O)[C@@H](NC(=O)/C(=N\OC)c3csc(N)n3)[C@H]2SC1 (stereo partly shown) [CPDP, cefpodoxime proxetil]
log10 CFU/g thigh change 24 h post therapy initiation (E. coli NMC101; 50 mg/kg p.o./q6h): +3.39 log10 CFU/g | log10 CFU/g thigh change 24 h post therapy initiation (E. coli ARC4419; 50 mg/kg p.o./q6h): +2.23 log10 CFU/g | efficacy over 24 h [6]: 1–log kill | log10 CFU/g thigh change 24 h post therapy initiation (E. coli ARC2687; 50 mg/kg p.o./q6h): +3.61 log10 CFU/g | log10 CFU/g thigh change 24 h post therapy initiation (K. pneumoniae ARC4488): +3.58 log10 CFU/g | log10 CFU/g thigh change 24 h post therapy initiation (K. pneumoniae ARC5118): +2.66 log10 CFU/g | systemic concentrations of intact prodrug [3]: No concentrations of intact CPDP and ETX0282 were observed systemically
